Common to all, as to assay: NCI-60 cell line screen, 48 h
Assay [1] deals with TK-10.
For assay [2], the system named is ACHN.
The test system of assay [3] is A498.
Assay [4] relates to RXF 393.
The subject of assay [5] is SNB-75.
The subject of assay [6] is SNB-19.
Assay [7] deals with UACC-257.
The test system of assay [8] is SK-MEL-2.
The test system of assay [9] is U-251.
Assay [10] relates to Malme-3M.
For assay [11], the system named is SF-539.
Assay [12] deals with CCRF-CEM.
The subject of assay [13] is UO-31.
Assay [14] has as its system NCI-H522.
Assay [15] concerns HCC 2998.
Assay [16] deals with M19-MEL.
The test system of assay [17] is OVCAR-5.
Assay [18] relates to MOLT-4.
Assay [19] concerns MDA-MB-435.
Assay [20] relates to NCI/ADR-RES.

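Step 1: Grow cells in 96-well plates. Step 2: Expose to compound for 48 hours at 5 concentrations. Step 3: Interpolate endpoints linearly; if unreached, use highest concentration. Abbreviation: GI50, concentration required for 50% inhibition of growth.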 The source made the active and inactive calls. Rule as the data show it: active = GI50 up to about 1.1 µM and inactive = higher.

In the case of `CC(/C(=N/NC(=O)C(N)=O)c1c(Cl)ccc(Cl)c1O)C1(O)C(=O)Nc2ccccc21` (configuration not stated), the GI50 in assay [1] was 46.9 µM (inactive); in assay [2], 26.5 µM (inactive); in assay [3] it was 17.8 µM (inactive); in [4] it was 55.3 µM (inactive); in assay [5], 28.6 µM (inactive); in [6], 72.4 µM (inactive). Also, the GI50 in assay [7] was 53.3 µM (inactive); in [8] it was 33.3 µM (inactive); in [9] it was 50.1 µM (inactive); in assay [10], 64.9 µM (inactive); in assay [11], 32 µM (inactive); in assay [12], 31.8 µM (inactive). For the same compound, the GI50 in assay [13] was 38 µM (inactive); in assay [14], 19.2 µM (inactive); in assay [15], 65.3 µM (inactive); in assay [16], 40.4 µM (inactive); in [17], 34.8 µM (inactive).
For `C(=N\Nc1ccccc1)/c1nc2ccccc2nc1/C=N/Nc1ccccc1`, the GI50 was 15.8 µM (inactive) in assay [1]; 11.8 µM (inactive) in assay [2]; 13.2 µM (inactive) in [18]; 16.6 µM (inactive) in [3]; 16.3 µM (inactive) in [4]; 12.2 µM (inactive) in [5]. Besides, the GI50 was 18.9 µM (inactive) in [6]; 23 µM (inactive) in [7]; 18.2 µM (inactive) in [8]; 24.9 µM (inactive) in assay [10]; 14.8 µM (inactive) in assay [11]; 23.6 µM (inactive) in [12]. The GI50 in assay [13] was 32.2 µM (inactive); in [14], 16.5 µM (inactive); in assay [15], 8.02 µM (inactive); in assay [16], 20.7 µM (inactive); in assay [17], 27 µM (inactive).
As for `COc1cc(OC(=O)c2ccccc2)cc2c1C(=O)C=CC2=O`, the GI50 is 17.9 µM (inactive) in assay [1]; 5.65 µM (inactive) in assay [19]; 12.8 µM (inactive) in assay [2]; 15.2 µM (inactive) in [20]; 1.73 µM (inactive) in assay [18]; 18.5 µM (inactive) in assay [3]. Moreover, the GI50 in assay [4] was 10.9 µM (inactive); in [5] it was 22.6 µM (inactive); in assay [6] it was 30.6 µM (inactive); in assay [7], 16.2 µM (inactive); in assay [8], 18.1 µM (inactive); in assay [9], 16.4 µM (inactive). Besides, the GI50 in assay [10] is 15.3 µM (inactive); in [11], 20.1 µM (inactive); in assay [12] it was 0.543 µM (active); in assay [13], 11.2 µM (inactive); in assay [14], 5.31 µM (inactive); in [15] it was 4.58 µM (inactive). In addition, the GI50 is 11 µM (inactive) in [16] and 32.7 µM (inactive) in assay [17].
As for `COc1c(C(=O)c2ccc([N+](=O)[O-])cc2)cc(C(C)(C)C)cc1C(C)(C)C`, the GI50 was 13.8 µM (inactive) in [1]; 31.3 µM (inactive) in assay [2]; 16.4 µM (inactive) in assay [18]; 55.8 µM (inactive) in assay [3]; 17.1 µM (inactive) in assay [4]; 74.5 µM (inactive) in assay [5]. In addition, the GI50 in [6] is 48.5 µM (inactive); in assay [7], 22.9 µM (inactive); in assay [8] it was 13.4 µM (inactive); in assay [9], 19.1 µM (inactive); in assay [10] it was 26.5 µM (inactive); in [11], 64.4 µM (inactive). The GI50 is 26.7 µM (inactive) in assay [12]; 40.8 µM (inactive) in [13]; 21.5 µM (inactive) in assay [14]; 24.9 µM (inactive) in assay [15]; 30.1 µM (inactive) in [16]; 13.4 µM (inactive) in assay [17].

Values taken from ChEMBL document CHEMBL1201862, “PubChem BioAssay data set” (2004).
